Measurements from patent publication US12016959B2, “Sustained drug release sheet for treating nerve injury” (OSAKA UNIVERSITY, priority 2016, dated 2024).

Tests used:
[1] = test system: rat sciatic nerve crush injury model; assay: Histological evaluation (axons, MBP-positive axons), rat sciatic nerve crush injury model; format: in vivo; details: 6 weeks after surgery, mean±SEM
Method: (§1) All of animal experiments were went ahead with the approval of the Ethics Committee of the animal laboratory of Osaka University. Six-week-old male Wistar rats (body weights: about 200 g) were used. All of the surgeries were carried out while applying deep sedation with a mixed anesthetic drug composed of midazolam (2 mg/kg), butorphanol (2.5 mg/kg) and medetomidine (0.15 mg/kg). A left sciatic nerve was exposed under clean operations, and a crush injury was applied to a position 5 mm distal to a sciatic notch with a pair of forceps. The time of crushing was 10 seconds, the frequency of crushing operations was three times, and the intervals between the crushing operations was 10 seconds. The fascia and the skin were sutured together with 4-0 nylon. […] The systemic administration of methylcobalamin was performed by placing an osmotic minipump (Model 2ML2; Alzet, Cupertino, CA, USA) under the skin of the back. All of the surgeries were carried out by the same practitioner.
Each of the rats 6 weeks after the surgery was sedated with an anesthetic drug, and a left sciatic nerve was collected therefrom and then fixed with 4% PFA for 5 days and with 20% sucrose for 24 hours and then frozen and embedded. […] The total number of axons and the ratio of myelinated axons (total number of MBP-positive axons)/(total number of axons) were evaluated.

[2] = Concentration of vitamin B12 (drug) in blood, rat sciatic nerve crush injury model; format: in vivo; details: 6 weeks after surgery; mean±SEM
Method: The examination on the sheet that contained the present extract as a drug was carried out in the same manner.
Blood was collected in an amount of 1 mL from the left ventricle of a rat under anesthesia 6 weeks after the surgery. The collected blood was centrifuged at 800×g for 20 minutes to collect a supernatant. The measurement of a concentration of vitamin B12 in the blood was entrusted to BML, INC. (Tokyo).

[3] = test system: rat sciatic nerve crush injury model; assay: Electrophysiological evaluation (CMAP, TL, NCV), rat sciatic nerve crush injury model; format: in vivo; details: 6 weeks after surgery, mean±SEM
Method: as §1
Each of the rats 3 or 6 weeks after the surgery was sedated with an anesthetic drug and was then placed on an operating table in a prone position. A left sciatic nerve and a left tibialis anterior muscle were exposed. Each of a compound muscle action potential (CMAP) and a terminal latency (TL) was measured while stimulating a proximal site of a sciatic nerve with a bipolar electrode. A nerve conduction velocity (NCV) was calculated from measurement values respectively obtained at a proximal site and a distal site to the sciatic nerve crush injury while stimulating the positions with a bipolar electrode. In the measurement and the evaluation, AD Instruments Power Lab 2/26, Stimulus isolator, and Bio Amp and Chart & Scope software (all manufactured by AD Instruments, Bel la Vista, NSW, Australis) were used.

[4] = test system: rat sciatic nerve crush injury model; assay: Sensory function, von Frey filament test, rat sciatic nerve crush injury model; format: in vivo; details: 6 weeks after surgery; untreated group 117.8±11.7 g; mean±SEM
Method: as §1, with “All of the surgeries were carried out by the same practitioner.” left out
For the evaluation of a sensory function, a mechanical hind paw withdrawal threshold was measured 6 weeks after the surgery using a von Frey filament (0.008 to 26 g; Touch Test, North Coast Medical Inc, Gilroy, CA, USA). Each of the rats was made walk on a metallic mesh, then a pressure was applied onto the center of the sole until the filament began to bend, and then a value at which the rat evoked an escape behavior was recorded.

[5] = test system: rat sciatic nerve crush injury model; assay: Motor function, sciatic function index (SFI), rat sciatic nerve crush injury model; format: in vivo; details: 6 weeks after surgery; 0 = normal, −100 = impaired; untreated group −20.6±4.2; mean±SEM
Method: as §1, with “All of the surgeries were carried out by the same practitioner.” left out
For the evaluation of a motor function, a sciatic function index (SFI) was measured 6 weeks after the surgery. For the measurement of an SFI, an ink was applied to the back paw of a rat, then the rat was allowed to walk on office paper placed on a 40 cm-square horizontal table, and then foot prints of the rat were recorded. The four items mentioned below were measured to calculate an SFI. […] An SFI value was calculated in accordance with the following mathematical formula. […]

[6] = test system: rat sciatic nerve injury model; details: continuous high-dose administration; Non-Patent Document 2; cited from earlier work
[7] = test system: neurons; details: Non-Patent Document 2; cited from earlier work
[8] = test system: Erk1/2 and Akt; details: through the methylation cycle; Non-Patent Document 2; cited from earlier work

Compound: C/C1=C2/[N-][C@H]([C@H](CC(N)=O)[C@@]2(C)CCC(=O)NC[C@@H](C)OP(=O)([O-])O[C@H]2[C@@H](O)[C@@H](n3cnc4cc(C)c(C)cc43)O[C@@H]2CO)[C@]2(C)N=C(/C(C)=C3N=C(/C=C4N=C1[C@@H](CCC(N)=O)C\4(C)C)[C@@H](CCC(N)=O)[C@]\3(C)CC(N)=O)[C@@H](CCC(N)=O)[C@]2(C)CC(N)=O.[CH3-].[Co+3] [MeCbl pump, methylcobalamin]
- ratio of myelinated axons (number of MBP-positive axons)/(total number of axons) ([1]; untreated group 85.0±0.9%): 91.5±0.6%
- number of regenerated axons per sq. mm ([1]; untreated group 2843±68/mm^2): 2735±77 /mm^2
- concentration of vitamin B12 in the blood [2]: 18.35 ± 2.27 ng/mL
- terminal latency (TL) ([3]; untreated group 3.45±0.08 ms): 3.24 ± 0.07 ms
- compound muscle action potential (CMAP) ([3]; untreated group 19.5±2.3 mV): 19.5±1.5 mV
- nerve conduction velocity (NCV) ([3]; untreated group 28.2±2.5 m/s): 43.2±2.5 m/s
- von Frey filament test, mechanical hind paw withdrawal threshold [4]: 77.8 ± 7.0 g
- sciatic function index (SFI) [5]: −10.5±2.0
- nerve regeneration and function recovery [6]: improves nerve regeneration and function recovery
- concentration that can promote the elongation of neurites and the survival of neurons [7]: ≥ 100 nM
- activities of Erk1/2 and Akt [8]: increase the activities of Erk1/2 and Akt
